IC50 data for 38 molecules are collected here from patent US10457655B2, “Compounds and compositions for inhibition of FASN” (FORMA Therapeutics, Inc., priority 2013, dated 2019).

The target of the first assay is FASN enzyme (Homo sapiens, UniProt P49327). The experiment in a line: Enzymatic Assay for FASN Inhibitors.
Chain of FASN enzyme (P49327 whole entry): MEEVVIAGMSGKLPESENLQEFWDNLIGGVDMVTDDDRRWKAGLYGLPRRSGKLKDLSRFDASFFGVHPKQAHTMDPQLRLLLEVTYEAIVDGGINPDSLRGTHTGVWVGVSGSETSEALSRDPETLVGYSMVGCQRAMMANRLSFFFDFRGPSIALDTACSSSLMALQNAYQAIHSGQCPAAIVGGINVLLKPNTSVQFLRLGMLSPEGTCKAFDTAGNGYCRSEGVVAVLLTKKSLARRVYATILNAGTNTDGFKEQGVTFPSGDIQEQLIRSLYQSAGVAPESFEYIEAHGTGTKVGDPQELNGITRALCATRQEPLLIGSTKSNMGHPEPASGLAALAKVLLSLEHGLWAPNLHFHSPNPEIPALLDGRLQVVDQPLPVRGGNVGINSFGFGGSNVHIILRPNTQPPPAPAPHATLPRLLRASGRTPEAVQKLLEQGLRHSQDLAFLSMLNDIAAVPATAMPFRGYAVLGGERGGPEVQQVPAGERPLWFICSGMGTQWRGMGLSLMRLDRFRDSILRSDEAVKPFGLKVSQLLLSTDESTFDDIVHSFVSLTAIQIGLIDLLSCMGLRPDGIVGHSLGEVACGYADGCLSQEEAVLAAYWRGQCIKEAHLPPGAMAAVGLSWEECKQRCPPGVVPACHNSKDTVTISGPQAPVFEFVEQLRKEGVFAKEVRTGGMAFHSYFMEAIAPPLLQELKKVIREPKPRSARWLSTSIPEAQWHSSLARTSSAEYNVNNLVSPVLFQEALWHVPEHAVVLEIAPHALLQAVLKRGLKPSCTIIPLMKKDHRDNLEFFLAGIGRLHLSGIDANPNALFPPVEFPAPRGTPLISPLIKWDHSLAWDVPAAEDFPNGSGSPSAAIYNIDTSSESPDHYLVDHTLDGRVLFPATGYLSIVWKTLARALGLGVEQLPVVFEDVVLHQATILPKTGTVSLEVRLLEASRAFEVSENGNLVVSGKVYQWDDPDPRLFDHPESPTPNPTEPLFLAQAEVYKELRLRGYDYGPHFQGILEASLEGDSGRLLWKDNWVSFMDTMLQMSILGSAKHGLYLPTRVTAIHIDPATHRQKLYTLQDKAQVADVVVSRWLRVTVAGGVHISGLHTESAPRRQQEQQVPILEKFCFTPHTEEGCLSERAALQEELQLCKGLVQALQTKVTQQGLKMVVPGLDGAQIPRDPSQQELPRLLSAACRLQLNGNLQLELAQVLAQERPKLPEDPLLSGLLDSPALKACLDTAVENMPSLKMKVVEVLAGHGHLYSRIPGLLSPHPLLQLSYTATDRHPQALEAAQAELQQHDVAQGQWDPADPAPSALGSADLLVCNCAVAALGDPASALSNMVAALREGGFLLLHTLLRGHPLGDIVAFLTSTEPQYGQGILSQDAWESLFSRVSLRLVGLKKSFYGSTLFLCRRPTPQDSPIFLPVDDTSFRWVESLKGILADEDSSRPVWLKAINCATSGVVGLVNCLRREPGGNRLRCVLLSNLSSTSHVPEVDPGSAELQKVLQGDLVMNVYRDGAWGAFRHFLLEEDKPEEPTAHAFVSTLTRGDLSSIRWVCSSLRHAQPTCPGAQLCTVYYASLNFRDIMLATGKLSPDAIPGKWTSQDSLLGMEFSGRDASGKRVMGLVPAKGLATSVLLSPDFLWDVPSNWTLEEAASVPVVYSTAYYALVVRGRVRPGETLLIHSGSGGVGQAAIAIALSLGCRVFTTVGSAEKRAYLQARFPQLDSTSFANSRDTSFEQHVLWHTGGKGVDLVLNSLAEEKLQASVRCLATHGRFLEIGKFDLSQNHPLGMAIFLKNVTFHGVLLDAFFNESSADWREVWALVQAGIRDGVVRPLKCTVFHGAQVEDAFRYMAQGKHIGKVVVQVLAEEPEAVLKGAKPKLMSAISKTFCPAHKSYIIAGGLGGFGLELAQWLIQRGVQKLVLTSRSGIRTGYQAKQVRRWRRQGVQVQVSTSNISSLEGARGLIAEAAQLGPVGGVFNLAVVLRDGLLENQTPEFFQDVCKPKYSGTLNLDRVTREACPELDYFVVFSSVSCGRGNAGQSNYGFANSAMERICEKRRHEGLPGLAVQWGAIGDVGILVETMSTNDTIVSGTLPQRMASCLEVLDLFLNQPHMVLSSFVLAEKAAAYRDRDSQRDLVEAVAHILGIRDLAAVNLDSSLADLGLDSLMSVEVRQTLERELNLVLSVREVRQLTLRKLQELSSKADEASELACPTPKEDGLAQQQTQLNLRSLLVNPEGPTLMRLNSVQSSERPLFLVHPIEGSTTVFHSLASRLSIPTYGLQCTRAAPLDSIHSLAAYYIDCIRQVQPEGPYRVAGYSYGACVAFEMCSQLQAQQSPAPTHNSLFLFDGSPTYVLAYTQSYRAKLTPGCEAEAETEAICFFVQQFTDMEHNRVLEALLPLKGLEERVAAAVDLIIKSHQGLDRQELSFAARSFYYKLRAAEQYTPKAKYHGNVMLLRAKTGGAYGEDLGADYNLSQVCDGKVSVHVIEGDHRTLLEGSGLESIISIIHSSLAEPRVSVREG
Conditions: not given
It is filed as biochemical. The essentials: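 40 nM FASN preincubated with compound 60 min at 25° C in HEPES pH 7.3 buffer with 0.04% Triton X-100. Then 20 μM acetyl-CoA, 60 μM malonyl-CoA and 100 μM NADPH added for 90 min, quenched with CPM thiol probe; fluorescence 360/530 nm, IC50 by four-parameter fit.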
As usually defined, the IC50 is the midpoint of a concentration-inhibition curve. A lower IC50 goes with inhibition by little substance. Take `Cc1n[nH]c2c(-c3ccc(C(=O)N4CCN(C(=O)C5(N)CC5)CC4)c(F)c3)cccc12` [1-{4-[2-fluoro-4-(3-methyl-1H-indazol-7-yl)benzoyl]piperazine-1-carbonyl}cyclopropan-1-amine]: the IC50 was below 500 nM.
The same measure, in the same setting: the result for `O=C(c1ccc(-c2cccc(NS(=O)(=O)C3CCCC3)c2)cc1)N1CCN(C(=O)C2(O)CC2)CC1` reads below 500 nM.
Molecule `Cc1n[nH]c2ncc(-c3ccc(C(=O)N4CCN(C(=O)C5(O)CC5)CC4)cc3)cc12` [1-[4-(4-{3-methyl-1H-pyrazolo[3,4-b]pyridin-5-yl}benzoyl)piperazine-1-carbonyl]cyclopropan-1-ol] showed an IC50 below 500 nM.
`O=C(c1ccc(-c2ccc3c(cnn3C3CC3)c2)cc1)N1CCN(C(=O)C2(O)CC2)CC1` [1-{4-[4-(1-cyclopropyl-1H-indazol-5-yl)benzoyl]piperazine-1-carbonyl}cyclopropan-1-ol] registered an IC50 below 500 nM.
The same measure, in the same setting: under `Cn1cc2ccc(-c3ccc(C(=O)N4CCN(C(=O)C5(N)CCC5)CC4)c(F)c3)cc2n1` [1-{4-[2-fluoro-4-(2-methyl-2H-indazol-6-yl)benzoyl]piperazine-1-carbonyl}cyclobutan-1-amine] stands below 500 nM; under `Nc1cc(-c2cccc(-c3ccc(C(=O)N4CCN(C(=O)C5(O)CC5)CC4)c(F)c3)c2)no1` [1-(4-{4-[3-(5-amino-1,2-oxazol-3-yl)phenyl]-2-fluorobenzoyl}piperazine-1-carbonyl)cyclopropan-1-ol], below 500 nM; under `Cn1cnc2cc(-c3ccc(C(=O)N4CCN(C(=O)C5(O)CC5)[C@@H](CO)C4)cc3)ccc21` [1-[(2R)-2-(hydroxymethyl)-4-[4-(1-methyl-1H-1,3-benzodiazol-5-yl)benzoyl]piperazine-1-carbonyl]cyclopropan-1-ol], below 500 nM.
`CN1C(=O)Cc2c(-c3ccc(C(=O)N4CCN(C(=O)C5(O)CC5)CC4)cc3)cccc21` [4-{4-[4-(1-hydroxycyclopropanecarbonyl)piperazine-1-carbonyl]phenyl}-1-methyl-2,3-dihydro-1H-indol-2-one] registered an IC50 below 500 nM.
Take `O=C(c1ccc(-c2ccc(-c3cn[nH]c3)cc2)cc1)N1CCN(C(=O)C2(O)CC2)CC1`: the IC50 was below 500 nM.
`Cn1cnc2cc(-c3ccc(C(=O)N4CCN(C(=O)C5(O)CCC5)CC4)cc3)ccc21` [1-{4-[4-(1-methyl-1H-1,3-benzodiazol-5-yl)benzoyl]piperazine-1-carbonyl}cyclobutan-1-ol] yielded an IC50 below 500 nM.
The molecule `O=C(c1ccc(-c2cc(Cl)ccc2Cl)cc1)N1CCN(C(=O)C2(O)CC2)CC1` [1-[(4-{[4-(2,5-dichlorophenyl)phenyl]carbonyl}piperazin-1-yl)carbonyl]cyclopropan-1-ol] registered an IC50 below 500 nM.
On the same count and under the same terms, under `C[C@H]1CN(C(=O)C2(N)CC2)CCN1C(=O)c1ccc(-c2ccc3c(c2)ncn3C)cc1` [1-[(3S)-3-methyl-4-[4-(1-methyl-1H-1,3-benzodiazol-5-yl)benzoyl]piperazine-1-carbonyl]cyclopropan-1-amine] stands below 500 nM; under `O=C(c1ccc(-n2ccc3ccccc32)cc1)N1CCN(C(=O)C2(O)CC2)CC1` [1-{4-[4-(1H-indol-1-yl)benzoyl]piperazine-1-carbonyl}cyclopropan-1-ol], below 500 nM; under `Cn1nc(O)c2ccc(-c3ccc(C(=O)N4CCN(C(=O)C5(O)CC5)CC4)cc3)cc21` [6-{4-[4-(1-hydroxycyclopropanecarbonyl)piperazine-1-carbonyl]phenyl}-1-methyl-1H-indazol-3-ol], below 500 nM.
`O=C(c1ccc(-c2ccc(Cl)cc2F)cc1F)N1CCN(C(=O)C2(O)CC2)CC1` [1-{4-[4-(4-chloro-2-fluorophenyl)-2-fluorobenzoyl]piperazine-1-carbonyl}cyclopropan-1-ol] gave an IC50 below 500 nM.
On the same count and under the same terms, under `Nc1n[nH]c2cc(-c3ccc(C(=O)N4CCN(C(=O)C5(O)CC5)CC4)cc3)ccc12` [1-{4-[4-(3-amino-1H-indazol-6-yl)benzoyl]piperazine-1-carbonyl}cyclopropan-1-ol] stands below 500 nM.
`O=C(NC1CC1)c1cccc(-c2ccc(C(=O)N3CCN(C(=O)C4(O)CC4)CC3)cc2)c1` [N-cyclopropyl-3-[4-({4-[(1-hydroxycyclopropyl)carbonyl]piperazin-1-yl}carbonyl)phenyl]benzamide] returned an IC50 below 500 nM.
`O=C(c1ccc(-n2cnc3ccccc32)cc1)N1CCN(C(=O)C2(O)CC2)CC1` [1-{4-[4-(1H-1,3-benzodiazol-1-yl)benzoyl]piperazine-1-carbonyl}cyclopropan-1-ol] gave an IC50 below 500 nM.
The same measure, in the same setting: under `N#CC1(c2cccc(-c3ccc(C(=O)N4CCN(C(=O)C5(O)CC5)CC4)cc3)c2)CCOCC1` [4-(3-{4-[4-(1-hydroxycyclopropanecarbonyl)piperazine-1-carbonyl]phenyl}phenyl)oxane-4-carbonitrile] stands below 500 nM; under `O=C(c1ccc(N2CCc3cc(F)ccc32)cc1)N1CCN(C(=O)C2(O)CC2)CC1` [1-{4-[4-(5-fluoro-2,3-dihydro-1H-indol-1-yl)benzoyl]piperazine-1-carbonyl}cyclopropan-1-ol], below 500 nM; under `C[C@H]1CN(C(=O)c2ccc(-c3nc4ccc(F)cc4o3)cc2)CCN1C(=O)C1(N)CC1` [1-[(2S)-4-[4-(6-fluoro-1,3-benzoxazol-2-yl)benzoyl]-2-methylpiperazine-1-carbonyl]cyclopropan-1-amine], below 500 nM.
In the case of `O=C(c1ccc(-c2cc(Cl)ccc2F)c(Cl)c1)N1CCN(C(=O)C2(O)CC2)CC1` [1-{4-[3-chloro-4-(5-chloro-2-fluorophenyl)benzoyl]piperazine-1-carbonyl}cyclopropan-1-ol], the IC50 was below 500 nM.
Turning to `O=C(Nc1cccc(-c2ccc(C(=O)N3CCN(C(=O)C4(O)CC4)CC3)cc2)c1)C1CC1`, the IC50 is below 500 nM.
Take `Cn1cnc2cc(-c3cc(F)c(C(=O)N4CCN(C(=O)C5(O)CC5)CC4)c(F)c3)ccc21` [1-{4-[2,6-difluoro-4-(1-methyl-1H-1,3-benzodiazol-5-yl)benzoyl]piperazine-1-carbonyl}cyclopropan-1-ol]: the IC50 was below 500 nM.
In turn, `O=C(c1ccc(-c2nc3ccccn3c2Cl)c(Cl)c1)N1CCN(C(=O)C2(O)CC2)CC1` [1-[4-(3-chloro-4-{3-chloroimidazo[1,2-a]pyridin-2-yl}benzoyl)piperazine-1-carbonyl]cyclopropan-1-ol] gave a concentration for half-maximal inhibition (IC50) below 500 nM.

Still in this assay, the particulars now being: FASN enzymatic assay; Table 2-2.
In turn, `COc1cc(-c2cnc3ccccc3c2)ccc1C(=O)N1CCN(C(=O)C2(O)CC2)CC1` [1-[(4-{[2-methoxy-4-(quinolin-3-yl)phenyl]carbonyl}piperazin-1-yl)carbonyl]cyclopropan-1-ol] came in with an IC50 of 500 to 5000 nM.
With `O=C(c1ccc(-c2ccc3nonc3c2)cc1)N1CCN(C(=O)C2(O)CC2)CC1` [1-[(4-{[4-(2,1,3-benzoxadiazol-5-yl)phenyl]carbonyl}piperazin-1-yl)carbonyl]cyclopropan-1-ol], the IC50 is 500 to 5000 nM.
As to `Cc1nc(-c2cnc3ccccc3c2)sc1C(=O)N1CCN(C(=O)C2(O)CC2)CC1` [1-[(4-{[4-methyl-2-(quinolin-3-yl)-1,3-thiazol-5-yl]carbonyl}piperazin-1-yl)carbonyl]cyclopropan-1-ol], the IC50 was 500 to 5000 nM.
Turning to `O=C(c1ccc(-c2ccc3ncccc3c2)cc1C(F)(F)F)N1CCN(C(=O)C2(O)CC2)CC1` [1-[(4-{[4-(quinolin-6-yl)-2-(trifluoromethyl)phenyl]carbonyl}piperazin-1-yl)carbonyl]cyclopropan-1-ol], the IC50 was 500 to 5000 nM.
Take `O=C(c1ccc(-c2ccc3oc(=O)[nH]c3c2)cc1)N1CCN(C(=O)C2(O)CC2)CC1` [5-[4-({4-[(1-hydroxycyclopropyl)carbonyl]piperazin-1-yl}carbonyl)phenyl]-2,3-dihydro-1,3-benzoxazol-2-one]: the IC50 is 500 to 5000 nM.
`Cc1noc2cc(-c3ccc(C(=O)N4CCN(C(=O)C5(O)CC5)CC4)cc3)ccc12` [1-[(4-{[4-(3-methyl-1,2-benzoxazol-6-yl)phenyl]carbonyl}piperazin-1-yl)carbonyl]cyclopropan-1-ol] came in with an IC50 of 500 to 5000 nM.
In turn, `Cn1c(-c2ccc(C(=O)N3CCN(C(=O)C4(O)CC4)CC3)cc2)nc2ccccc21` [1-[(4-{[4-(1-methyl-1H-1,3-benzodiazol-2-yl)phenyl]carbonyl}piperazin-1-yl)carbonyl]cyclopropan-1-ol] showed an IC50 of 500 to 5000 nM.
`O=C(c1ccc(-c2ccc(Cl)cc2F)cc1)N1CCN(C(=O)C2(O)CC2)C[C@H]1CO` [1-{[(3S)-4-{[4-(4-chloro-2-fluorophenyl)phenyl]carbonyl}-3-(hydroxymethyl)piperazin-1-yl]carbonyl}cyclopropan-1-ol] displayed an IC50 of 500 to 5000 nM.
With `CC(C)n1ncc2cc(-c3ccc(C(=O)N4CCN(C(=O)C5(O)CC5)CC4)cc3)ccc21` [1-{[4-({4-[1-(propan-2-yl)-1H-indazol-5-yl]phenyl}carbonyl)piperazin-1-yl]carbonyl}cyclopropan-1-ol], the IC50 lay within 500 to 5000 nM.
On to `O=C(c1cnc(-c2ccc3ncccc3c2)cn1)N1CCN(C(=O)C2(O)CC2)CC1` [1-[(4-{[5-(quinolin-6-yl)pyrazin-2-yl]carbonyl}piperazin-1-yl)carbonyl]cyclopropan-1-ol], for which the IC50 lay within 500 to 5000 nM.

Staying with this assay, now noted: FASN enzymatic assay; Table 2-3.
`COc1ccc(F)c(-c2ccc(C(=O)N3CCN(C(=O)C4(O)CC4)CC3)cc2)c1` [1-[(4-{[4-(2-fluoro-5-methoxyphenyl)phenyl]carbonyl}piperazin-1-yl)carbonyl]cyclopropan-1-ol]: the IC50 is at least 5000 nM.
The molecule `CC(O)(C(=O)N1CCN(C(=O)c2ccc(-c3ccccc3)cc2)CC1)C(F)(F)F` (centres unmarked) [3,3,3-trifluoro-2-hydroxy-2-methyl-1-{4-[(4-phenylphenyl)carbonyl]piperazin-1-yl}propan-1-one] yielded an IC50 of at least 5000 nM.
With `Cc1ccc(-c2ccc(C(=O)N3CCN(C(=O)C4(O)CC4)CC3)cc2)cc1` [1-[(4-{[4-(4-methylphenyl)phenyl]carbonyl}piperazin-1-yl)carbonyl]cyclopropan-1-ol], the IC50 was at least 5000 nM.
